Where two headings read alike, the source gives them in different places.
Assays:
[1] = cited from earlier work
[2] = system: patient with chronic neck pain; assay: Case report, Chronic Pain (Example 12); type: in vivo, human
Experimental: A further sublingual dose of phenyloin 1 mg was taken 15 mins after the first dose.

[3] = system: patients with autism / ASD / communication disorder; assay: Case reports, Autism and other Pervasive Development Disorders (Example 6); type: in vivo, human; settings: for communication, family relationships, behavioural disturbance: 1 mg daily increased to 3 mg in divided doses daily
Description: Patient 6A: Adult, diagnosed in childhood with autism and ADHD. A long history of behavioural disturbance with frequent episodes of violence despite treatment with high-dose antipsychotic medication. […] The high-dose antipsychotic medication has been reduced without any associated loss of recent benefit. […] A history of behavioural disturbance and educational impairment. […] Patient 6C was an adult, diagnosed in childhood with autism and ADHD with a history of behavioural disturbance and educational impairment. […] Patient 6D: Adult, diagnosed in childhood with autism, ADHD and antisocial personality traits. […] Patient C's conversation became more appropriate and consistent together with reported improvements in significant relationships. […] Patient 6E was an adult, diagnosed with communication disorder and major depression. […] Patient 6F was an adult with ASD. […] The patient's conversation became more appropriate and consistent and improvements in significant relationships were reported. A reduction in the reliance on alcohol to alleviate anxiety in social situations was observed. […] Sodium valproate was withdrawn and improvement was noted. […] Patient 6G was as adult, diagnosed in childhood with ASD. […] Sodium valproate was withdrawn. […] This has also been associated with improvements in reading and verbal understanding. These benefits have been sustained in some situations for three years. Although difficult to be objective, there seems to be good evidence of ongoing improvement. […] Improvements in coordination, in fine and gross motor control have been reported and improvement in gait which frequently is a significant issue for individuals with autistic disorders.

[4] = system: patients with PTSD; settings: cited from earlier work
[5] = system: patient with tardive dyskinsia; assay: Case report, Tardive Dyskinesia (Example 10); type: in vivo, human; settings: Patient 10A; test dose of 1 mg
Description: Patient 10A was an elderly person with a history of post-dramatic stress disorder treated with long-term antipsychotic medication.

[6] = system: individuals with symptoms of ADHD
[7] = system: mood stabilisation or epileptic symptoms or events; settings: per day; cited from earlier work
[8] = system: patient with spina bifida, ADHD, learning difficulties; assay: Case report, Spina Bifida (Example 11); type: in vivo, human

For `O=C1NC(=O)C(c2ccccc2)(c2ccccc2)N1` [phenyloin, 5,5-diphenylhydantoin], the half-life ([1]; high doses) is given as “prolonged”, the metabolism ([1]; in vivo) is given as “almost completely metabolized in the liver” and the “time for plasma concentration to reach steady-state level” value ([1]; in vivo) is given as 1-2 weeks. The half-life ([1]; low doses) was “less than 20 h”, the “freedom of movement without pain” value ([2]; additional sublingual dose 1 mg on top of 3 mg modified release) was “further acute improvement in the freedom of movement without pain” and the “control of chronic pain on maintenance” value ([2]; daily dose 3 mg modified release capsule) was “control of the chronic pain was maintained”. For the same compound, the duration of relief ([2]; sublingual 1 mg) was “approximately 10 min”, the vision during relief ([2]; sublingual 1 mg) was “enhancement in their vision” and the “intensity of the pain after dose” value ([2]; sublingual 1 mg, from 10/10 (most severe) before dose) was 5/10. The “invasive and distressing nature of cervical pain” value ([2]; ultra low dose) was “reduced with unexpected efficacy and rapidity”, the “social interaction and conversation” value ([3]; Patient 6A, autism and ADHD, single test dose sublingual 1 mg) was “immediate improvement noted in their ability to socially interact and sustain limited conversation” and the “social interaction, home and day respite centre” value ([3]; Patient 6A, 4 mg sustained release daily) was “improvement was consistently noted”. The behaviour after withdrawal ([3]; Patient 6A, withdrawal and recommencement) was “return of the behavioural disturbance which abated on recommencement”, the “communication, family relationships, behavioural disturbance” value ([3]; Patient 6B) was “sustained improvement in communication and family relationships together with a reduction in behavioural disturbance” and the “improvements at a higher dose or withdrawn” value ([3]; Patient 6B) was “Improvements were lost”. The “communication, family relationships, behavioural disturbance” value ([3]; Patient 6C) was “sustained improvement in communication and family relationships together with a reduction in behavioural disturbance”, the “improvements at a higher dose or withdrawn” value ([3]; Patient 6C) was “improvements were lost” and the “behaviour, verbal and non-verbal communication” value ([3]; Patient 6D, 2 mg daily) was “Significant improvement in behaviour, verbal and non-verbal communication”. The “benefit of increased dose” value ([3]; Patient 6D, 4 mg) was “No additional benefit”, the “non-verbal and verbal communication” value ([3]; autistic spectrum and social communication disorders, Ultra low dose, frequently below 5 mg) was “frequent instant improvement in both their non-verbal and verbal communication” and the “duration of sustained benefits in some situations” value ([3]; low dose) was “three years”. For the same compound, the “symptoms of Social Communication Disorder” value ([3]; ultra low dose) was “significant improvements in many patients”, the “increase in right brain volume” value ([4]; 300 mg per day in three doses, up to 400 mg/day, p<0.05) was 6% and the “improvements in memory and cognition” value ([4]; 300 to 400 mg/day) was “did not achieve statistical significance”. The abnormal facial movements [5] was “abnormal facial movements ceased”, the “duration of improvement on ceasing before deterioration” value ([6]; Patient 3A) was “up to 7 days” and the most efficacious dose ([6]; Patient 3A) was 0.1 mg daily. For the same compound, the “ADHD symptoms, clinical response” value ([6]; Patient 3A (on tricyclic antidepressant and dexamphetamine), 30 mg capsule) was “temporarily associated with improvement in clarity of thoughts and eye contact during conversation”, the “clinical response on reintroduction at a lower dose” value ([6]; Patient 3A, lower dose) was “initial benefit that associated with rapid loss of efficacy” and the functioning after withdrawal ([6]; Patient 3A, phenyloin withdrawn) was “initial improvement then later worsening to the pre-phenyloin functioning”. For the same compound, the “side effects of higher doses” value ([6]; in vivo) was “significant cognitive side effects”, the “efficacy of higher doses” value ([6]; individuals with symptoms of ADHD, higher doses) was “ineffective” and the “symptoms of ADHD, clinical response” value ([6]; individuals with symptoms of ADHD, ultra low doses) was “improvements were noted”. For the same compound, the “Minimum typical dose/day effective for mood stabilisation or treatment of epileptic symptoms or events” value [7] was 200 mg, the “duration of sustained improvements” value ([8]; Patient 11A) was “over 12 months” and the “social interaction, conversation, reading aloud, fine motor control and handwriting” value ([8]; Patient 11A (on low dose methylphenidate), sublingual dose 1 mg) was “significant improvement”. The “dose associated with optimal response” value ([8]; Patient 11A, daily in two divided doses) was 1.5 mg and the “efficacy after dose increase” value ([8]; Patient 11A, dose increased to 2 mg) was “loss of efficacy”.

— patent US20140142140A1, “PHARMACEUTICAL COMPOSITION FOR NEUROLOGICAL DISORDERS” (priority 2011, published 2014)
